From ChEMBL document CHEMBL1201862, “PubChem BioAssay data set” (2004) come the findings set out here.

Some test systems named below: CCRF-CEM; Malme-3M; A498; NCI-H226; 786-0; NCI-H522; SK-MEL-2; RXF 393; OVCAR-8; M14; COLO 205; EKVX; MOLT-4; SK-MEL-28; CAKI-1; DLD-1; U-251.
What all share (assay): inhibition of tumour cell growth, NCI panel, 48 h

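Where inhibition never reached the appropriate level, the endpoint shown equals the highest concentration tested. Otherwise, values were interpolated linearly from a five-concentration, 48-hour dose response in 96-well plates. The concentration for 50% growth inhibition is given as GI50.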 Calls of active or inactive are those of the source. Cut-off read from the data, not from the text of the source: active = GI50 up to about 1.1 µM and inactive = higher.

Take `CC(C)Cc1ccc(C(C)/C=C2\CCC(CN3CCCC3)C2=O)cc1` (configuration not stated): the GI50 in the assay on CCRF-CEM is 2.22 µM (inactive); in the assay on Malme-3M, 20.4 µM (inactive); in the assay on A498, 21.6 µM (inactive); with NCI-H226 it was 18.1 µM (inactive); in the assay with 786-0, 1.85 µM (inactive); with NCI-H522 it was 1.31 µM (inactive). Also, the GI50 with SK-MEL-2 was 17.7 µM (inactive); in the assay with RXF 393, 18.8 µM (inactive); with OVCAR-8, 7.01 µM (inactive); in the assay on M14, 13.8 µM (inactive); in the assay with COLO 205 it was 4.5 µM (inactive); in the assay with EKVX, 18.2 µM (inactive). For the same molecule, the GI50 was 2.67 µM (inactive) in the assay on MOLT-4; 14.6 µM (inactive) with SK-MEL-28; 13.6 µM (inactive) in the assay on CAKI-1; 2.55 µM (inactive) in the assay on DLD-1; 5.87 µM (inactive) with U-251.

With `Cc1cccc(NC(=O)c2c(N)[n+]([O-])c3ccccc3[n+]2[O-])c1`, the GI50 with CCRF-CEM is 4.68 µM (inactive); in the assay with Malme-3M it was 12.7 µM (inactive); in the assay with A498 it was 16.1 µM (inactive); in the assay on NCI-H226, 5.66 µM (inactive); in the assay on 786-0, 5.02 µM (inactive); in the assay on NCI-H522, 6.01 µM (inactive). In addition, the GI50 was 7.76 µM (inactive) in the assay on SK-MEL-2; 4.03 µM (inactive) with RXF 393; 10.2 µM (inactive) with OVCAR-8; 12 µM (inactive) in the assay with M14; 13.3 µM (inactive) in the assay on COLO 205; 16.9 µM (inactive) in the assay on EKVX. Also, the GI50 is 4.89 µM (inactive) in the assay with MOLT-4; 8.05 µM (inactive) in the assay with SK-MEL-28; 13.9 µM (inactive) with CAKI-1; 11.7 µM (inactive) with DLD-1; 1.78 µM (inactive) in the assay with U-251.

Turning to `COC(=O)C1=C(C(=O)OC)C2(OC(C)=O)c3ccccc3-c3ccccc3C12` (configuration not stated), the GI50 with CCRF-CEM is 0.733 µM (active); in the assay on Malme-3M it was 2.25 µM (inactive); in the assay with A498, 18.1 µM (inactive); in the assay on NCI-H226, 16.5 µM (inactive); with 786-0 it was 4.23 µM (inactive); in the assay with NCI-H522, 1.44 µM (inactive). The GI50 with SK-MEL-2 was 14.5 µM (inactive); with RXF 393, 4.8 µM (inactive); in the assay with OVCAR-8, 5.93 µM (inactive); in the assay with M14, 4.79 µM (inactive); in the assay with COLO 205, 1.63 µM (inactive); in the assay on EKVX it was 10.6 µM (inactive). For the same molecule, the GI50 in the assay with MOLT-4 is 1.96 µM (inactive); in the assay on SK-MEL-28 it was 5.27 µM (inactive); in the assay on CAKI-1 it was 2.16 µM (inactive); with DLD-1, 1.7 µM (inactive); in the assay with U-251, 7.87 µM (inactive).

For the molecule `O=C(CC1(O)C(=O)Nc2c(Cl)cc(Cl)cc21)c1ccc2ccccc2c1` (configuration not stated), the GI50 in the assay on CCRF-CEM was 10.2 µM (inactive); with Malme-3M, 6.53 µM (inactive); in the assay with A498 it was 11.3 µM (inactive); with 786-0, 10.2 µM (inactive); in the assay on NCI-H522, 2.92 µM (inactive); with SK-MEL-2, 2.48 µM (inactive). Further, the GI50 is 8.17 µM (inactive) with RXF 393; 10.6 µM (inactive) in the assay on OVCAR-8; 4.79 µM (inactive) in the assay with M14; 8.79 µM (inactive) with COLO 205; 9.77 µM (inactive) with EKVX; 6.24 µM (inactive) in the assay with MOLT-4. Further, the GI50 in the assay with SK-MEL-28 is 10.7 µM (inactive); with CAKI-1, 5.7 µM (inactive); in the assay with DLD-1, 11.6 µM (inactive); in the assay on U-251, 6.92 µM (inactive).

As to `COc1ccc2c(c1)CC1c3c(ccc(OC)c3O)CC2N1C` (configuration not stated), the GI50 was 23.3 µM (inactive) in the assay on CCRF-CEM; 15.7 µM (inactive) in the assay on Malme-3M; > 100 µM (inactive) in the assay on A498; 86.1 µM (inactive) in the assay with NCI-H226; 29.1 µM (inactive) in the assay with 786-0; 19.7 µM (inactive) with NCI-H522. Also, the GI50 is 19.2 µM (inactive) with SK-MEL-2; 22.6 µM (inactive) in the assay on RXF 393; 34.2 µM (inactive) in the assay on OVCAR-8; 16.5 µM (inactive) with M14; 18.2 µM (inactive) in the assay on COLO 205; 50.9 µM (inactive) in the assay on EKVX. The GI50 in the assay with MOLT-4 was 23 µM (inactive); in the assay with SK-MEL-28, 21 µM (inactive); with CAKI-1, 40 µM (inactive); in the assay on DLD-1, 68.5 µM (inactive); with U-251, 25.1 µM (inactive).

As for `CN(CC#N)C1CCCC[C@H]1O` (some centres not stated), the GI50 in the assay with CCRF-CEM, with Malme-3M, in the assay with A498, with NCI-H226, in the assay with 786-0 and in the assay on NCI-H522 was > 100 µM (inactive) in each case. In addition, the GI50 in the assay with SK-MEL-2, in the assay on RXF 393, with OVCAR-8, in the assay with M14, with COLO 205 and in the assay on EKVX was > 100 µM (inactive) throughout. For the same molecule, the GI50 in the assay with MOLT-4, in the assay with SK-MEL-28, in the assay on CAKI-1, in the assay on DLD-1 and with U-251 was > 100 µM (inactive) throughout.

With `COc1cc2ccc(CC#N)cc2cc1OC`, the GI50 in the assay on CCRF-CEM, in the assay with Malme-3M, in the assay with A498, with NCI-H226, in the assay on 786-0 and in the assay with SK-MEL-2 was > 100 µM (inactive) each time. Also, the GI50 with RXF 393 was > 100 µM (inactive); in the assay with OVCAR-8 it was > 100 µM (inactive); in the assay on EKVX, 83.8 µM (inactive); in the assay with MOLT-4 it was > 100 µM (inactive); with SK-MEL-28, > 100 µM (inactive); with CAKI-1, 45.9 µM (inactive). Besides, the GI50 in the assay on DLD-1 and in the assay with U-251 was > 100 µM (inactive) in each case.

`CN(C)c1ccc(/C=c2\sc3nnc(Cc4ccccc4)n3c2=O)cc1`: the GI50 in the assay with CCRF-CEM, in the assay with Malme-3M, with A498, in the assay on NCI-H226, in the assay on 786-0 and in the assay on NCI-H522 was > 10 µM (inactive) each time. In addition, the GI50 is > 10 µM (inactive) with SK-MEL-2; 31.8 µM (inactive) in the assay with RXF 393; > 10 µM (inactive) in the assay on OVCAR-8; > 10 µM (inactive) with M14; > 10 µM (inactive) with COLO 205; > 10 µM (inactive) in the assay with EKVX. For the same molecule, the GI50 in the assay with MOLT-4, in the assay on SK-MEL-28, with CAKI-1, with DLD-1 and in the assay with U-251 was > 10 µM (inactive) each time.

Consider `CC1=C(CO)C(=O)OC(C(C)C2CCC3C4CC5OC56C(O)C(N5CC5)=CC(=O)C6(C)C4CCC23C)C1` (configuration not stated), for which the GI50 was 2.61 µM (inactive) in the assay on CCRF-CEM; 12.6 µM (inactive) with Malme-3M; 2.11 µM (inactive) in the assay with A498; 14.2 µM (inactive) in the assay with NCI-H226; 5.05 µM (inactive) in the assay with 786-0; 1.67 µM (inactive) in the assay on NCI-H522. In addition, the GI50 with SK-MEL-2 was 5.73 µM (inactive); with RXF 393, 12 µM (inactive); in the assay on OVCAR-8, 2.2 µM (inactive); in the assay with M14, 12.1 µM (inactive); in the assay on EKVX it was 12.2 µM (inactive); in the assay on MOLT-4 it was 1.95 µM (inactive). Besides, the results for the GI50 in the assay on SK-MEL-28, in the assay with DLD-1 and in the assay on U-251 were 16 µM (inactive), 4.93 µM (inactive) and 4.22 µM (inactive), respectively.
